# Results published in US20030027791A1, “Composition and method for reducing adverse interactions between phenothiazine derivatives and plasma using cyclodextrins” (Wyeth, priority 2001, published 2003).
# Legend:
# [1] = Precipitate formation when promethazine hydrochloride preparation is mixed with plasma in vitro; type: physicochemical; details: mixing ratio not stated
# From the text: Without being bound by any particular theory, it is believed that this precipitate formation could be related to the venous thrombosis found at the injection site, as well as the cause of other local adverse reactions involving promethazine hydrochloride injection. […] With a composition according to one or more of the embodiments set forth herein, it is expected that a promethazine hydrochloride solution given by the routes of i.v. and i.m. (intramuscular) injection would have fewer incidences of irritation and other adverse reactions at the site of injection.
# [2] = intravenous use; cited from earlier work
# [3] = in vivo; cited from earlier work
smiles,measurement,setting,value
"CC(CN1c2ccccc2Sc2ccccc21)N(C)C.Cl (racemic) [promethazine hydrochloride, 10H-Phenothiazine-10-ethanamine, N,N, α-trimethyl-, monohydrochloride, (±)-]",Precipitate formation when solution is mixed with plasma in vitro,[1],precipitates form immediately
same,Adverse reactions at the injection site,[2],some incidents of venous thrombosis at the injection site have been encountered
same,Plasma creatine kinase levels,[3],raise plasma creatine kinase levels
